Key:
HT1080 cells = assay: BrdU incorporation (DNA synthesis) in quiescent HT1080 cells; type: cell-based, human; conditions: EGF 100 ng/ml, 18 h; for Inhibition of EGF-induced BrdU incorporation (DNA synthesis): Casodex 10 μM, S1 and Ss peptides 1 nM, BrdU by IF, % of total nuclei
Description: Human fibrosarcoma HT1080 cells were used. In A, quiescent cells on coverslips were left un-stimulated or stimulated for 18 h with the indicated compounds. […] After in vivo pulse with BrdU (100 μM; Sigma), BrdU incorporation was analyzed by IF and expressed as % of total nuclei. Several independent experiments were performed in duplicate and the results were derived from at least 400 scored cells for each coverslip. Mean and SEM are shown. n represents the number of experiments. […] In B, xenografts were established in nude male mice as described in Methods. On alternate days, animals were intra-peritoneally injected with vehicle alone (vehicle), or the pure androgen antagonist Casodex (Cx: 0.1 μg/mice; 4µg/Kg body weight), or DHT (DHT: 0,1 μg/mice; 3 μg/Kg body weight) alone. Volumes of HT1080 cell xenografts were measured at the indicated times in two dimensions by a caliper and expressed as tumor mass (mm^3). Mean and SEM are shown. n represents the number of experiments.
(§1) Quiescent HT1080 cells were used. […] Casodex (at 10 μM) was used for comparison with the S1 peptide. Upper section in A, Western blot of HT1080 cell lysates with anti-EGFR antibody. […] In B, lysates were immune-precipitated with the anti-Src MAb and Src activity in immune complexes was assayed using acidified enolase, as a substrate. In C, cells on coverslips were left untreated or treated for 18 h with the indicated compounds. After in vivo pulse with BrdU (100 μM), BrdU incorporation was analyzed by IF and expressed as % of total nuclei. Several independent experiments were performed in duplicate and the results were obtained from at least 500 scored cells for each coverslip. Mean and SEM are shown. n represents the number of experiments.

LNCaP cells [1] = assay: Trans-well migration of LNCaP cells; type: cell-based, human; conditions: quiescent LNCaP cells, 6 h, EGF 100 ng/ml; for Inhibition of EGF-induced motility (transmigration): Casodex 10 μM, S1 and Ss peptides 1 nM
LNCaP cells [2] = assay: BrdU incorporation in LNCaP cells; type: cell-based, human; conditions: quiescent LNCaP cells, EGF 100 ng/ml, 18 h; for Inhibition of EGF-induced BrdU incorporation: Casodex 10 μM, S1 and Ss peptides 10 nM
Description: Quiescent human prostate cancer-derived LNCaP cells were used. In A, quiescent cells on coverslips were left unstimulated or stimulated for 18 h with the indicated compounds. […] After in vivo pulse with BrdU (100 μM), BrdU incorporation was analyzed by IF and expressed as % of total cells. Several independent experiments were performed in duplicate and the results were derived from at least 600 scored cells for each coverslip. Mean and SEM are shown. n represents the number of experiments. In B, the cells were left untreated or treated for 6 h with the indicated compounds. […] Cells were allowed to migrate in collagen pre-coated Trans-well filters. Migrated cells were stained and counted as reported in Methods. Results were derived from several independent experiments, each performed in duplicate. Data are expressed as relative increase. Mean and SEM are shown. n represents the number of experiments. Quiescent human breast cancer-derived MCF-7 cells were used. In C, quiescent cells on coverslips were left un-stimulated or stimulated for 18 h with the indicated compounds. […] After in vivo pulse with BrdU (100 μM), BrdU incorporation was analyzed by IF and expressed as % of total cells. Several independent experiments were performed in duplicate and the results were derived from at least 500 scored cells for each coverslip. Mean and SEM are shown. n represents the number of experiments. In D, the cells were left untreated or treated for 6 h with the indicated compounds. […] Cells were allowed to migrate in collagen-pre-coated Trans-well filters. Migrated cells were stained and counted as reported in Methods. Results were derived from several independent experiments, each performed in duplicate. Data are expressed as relative increase. Mean and SEM are shown. n represents the number of experiments.

MMP-9 = assay: Protease activity of MMP-9 released from HT1080 cells; type: cell-based, human; conditions: quiescent HT1080 cells; for Inhibition of EGF-stimulated MMP-9 secretion (protease activity): EGF 100 ng/ml 5 min, Casodex 10 μM, S1 and Ss peptides 10 nM added 30 min before EGF
HCT116 cells = assay: BrdU incorporation in HCT116 cells; type: cell-based, human; conditions: quiescent HCT116 cells, EGF 100 ng/ml, 18 h; for Inhibition of EGF-induced BrdU incorporation: Casodex 10 μM, S1 and Ss peptides 10 nM
Description: (§2) Quiescent human colon cancer-derived HCT116 cells were used. In A, cells on coverslips were left un-stimulated or stimulated for 18 h with the indicated compounds. […] After in vivo pulse with BrdU (100 μM), BrdU incorporation was analyzed by IF and expressed as % of total cells. Several independent experiments were performed in duplicate and the results were derived from at least 400 scored cells for each coverslip. Mean and SEM are shown. n represents the number of experiments. In B, the cells were left untreated or treated for 6 h with the indicated compounds. […] Cells were allowed to migrate in collagen-pre-coated Trans-well filters. Migrated cells were stained and counted as reported in Methods. Results were derived from several independent experiments, each performed in duplicate. Data are expressed as relative increase. Mean and SEM are shown. n represents the number of experiments. Quiescent human pancreatic cancer-derived KP-2 cells were used. In C, cells on coverslips were left unstimulated or stimulated for 18 h with the indicated compounds. […] After in vivo pulse with BrdU (100 μM), BrdU incorporation was analyzed by IF and expressed as % of total cells. Several independent experiments were performed in duplicate and the results were derived from at least 400 scored cells for each coverslip. Mean and SEM are shown. n represents the number of experiments. In D, the cells were left untreated or treated for 6 h with the indicated compounds. […] Cells were allowed to migrate in collagen-pre-coated Trans-well filters. Migrated cells were stained and counted as reported in Methods. Results were derived from several independent experiments, each performed in duplicate. Data are expressed as relative increase. Mean and SEM are shown. n represents the number of experiments. […] After in vivo labeling with 100 μM BrdU (Sigma), DNA synthesis was analyzed by immunofluorescence, using diluted (1:50 in PBS) mouse monoclonal anti-BrdU antibody (clone BU-1, from GE Healthcare).

KP-2 cells [3] = assay: Trans-well migration of KP-2 cells; type: cell-based, human; conditions: quiescent KP-2 cells, 6 h, EGF 100 ng/ml; for Inhibition of EGF-induced motility (transmigration): Casodex 10 μM, S1 and Ss peptides 10 nM
KP-2 cells [4] = assay: BrdU incorporation in KP-2 cells; type: cell-based, human; conditions: quiescent KP-2 cells, EGF 100 ng/ml, 18 h; for Inhibition of EGF-induced BrdU incorporation: Casodex 10 μM, S1 and Ss peptides 10 nM
Description: as §2

EGFR/AR/Src complex = biological target: T1, EGFR/AR/Src complex (Homo sapiens, UniProt P12931); assay: Co-immunoprecipitation of EGFR/AR/Src complex in HT1080 cells; type: cell-based; conditions: quiescent HT1080 cells; for Effect on EGF-induced EGFR/AR/Src complex assembly: EGF 100 ng/ml 10 min, S1 and Ss peptides 1 nM, anti-EGFR immunoprecipitation
T1 construct: endogenous in cells; host or cells: HT1080 human fibrosarcoma cells
Description: as §1
Lysates (at 2 mg/ml protein concentration) were prepared as described. […] The Src tyrosine kinase activity in immunocomplexes was assayed using enolase (Sigma) as a substrate.

Compound | Inhibition of EGF-induced BrdU incorporation (DNA synthesis) (HT1080 cells) | Inhibition of EGF-induced motility (transmigration) (LNCaP cells [1]) | Inhibition of EGF-induced BrdU incorporation (LNCaP cells [2]) | Inhibition of EGF-stimulated MMP-9 secretion (protease activity) (MMP-9) | Inhibition of EGF-induced BrdU incorporation (HCT116 cells) | Inhibition of EGF-induced motility (transmigration) (KP-2 cells [3]) | Inhibition of EGF-induced BrdU incorporation (KP-2 cells [4]) | Effect on EGF-induced EGFR/AR/Src complex assembly (EGFR/AR/Src complex) | BrdU incorporation (DNA synthesis) upon stimulation with the compound alone (HT1080 cells; R1881 and DHT 10 nM) | Motility in transmigration assay upon stimulation (LNCaP cells [1]) | BrdU incorporation upon stimulation (LNCaP cells [2]) | Increase of protease activity of MMP-9 released (MMP-9; EGF 100 ng/ml, 5 min) | BrdU incorporation upon stimulation (HCT116 cells) | Motility upon stimulation (KP-2 cells [3]) | BrdU incorporation upon stimulation (KP-2 cells [4]) | Association of EGF-R with AR and Src upon stimulation (EGFR/AR/Src complex; EGF 100 ng/ml, 10 min)
CC(O)(CS(=O)(=O)c1ccc(F)cc1)C(=O)Nc1ccc(C#N)c(C(F)(F)F)c1 (stereo not drawn) [Casodex] | inhibits the EGF-induced BrdU incorporation | inhibited to a similar extent | inhibits EGF-induced BrdU incorporation | inhibits this response | similarly inhibit these EGF-elicited responses | inhibit both DNA synthesis and motility | inhibit both DNA synthesis and motility |  |  |  |  |  |  |  |  | 
Ac-HPKPARIPHP-NH2 [Ss peptide] | only slightly affects |  | only slightly affects DNA synthesis | negligible inhibitory effect | does not interfere with the EGF-elicited responses | does not interfere with the EGF-elicited responses | does not interfere with the EGF-elicited responses | only slightly affects |  |  |  |  |  |  |  | 
Ac-PPPHPHARIK-NH2 [S1 peptide] | abolishes the mitogenic response elicited by EGF | inhibited to a similar extent | abolishes the mitogenic response elicited by EGF | inhibits the EGF effect on MMP-9 secretion | similarly inhibit these EGF-elicited responses | inhibit both DNA synthesis and motility | inhibit both DNA synthesis and motility | abolishes AR/Src association with EGF-R |  |  |  |  |  |  |  | 
EGF: epidermal growth factor (Roche), used as stimulus at 100 ng/ml |  |  |  |  |  |  |  |  | significantly incorporate BrdU | significantly increases the motility | robustly incorporate BrdU | about 2 fold | robustly increases BrdU incorporation | significantly increases | significantly increases BrdU incorporation | induces association of EGF-R with AR and Src

From publication PMC3793924, “Targeting Androgen Receptor/Src Complex Impairs the Aggressive Phenotype of Human Fibrosarcoma Cells” (PLoS ONE, 2013)
